Measured values: patent US12590099B2, “Inhibitors of histone deacetylase useful for the treatment or prevention of HIV infection” (Merck Sharp & Dohme LLC, priority 2018, dated 2026)
Like-named read-outs stand apart in the source and are kept apart here.

Assays:
[1] = tested on: KARN cells (Jurkat 2C4); assay: cells; format: cell-based
Method: KARN cells (Jurkat 2C4) were licensed from the laboratory of Dr. John Karn, Case Western Reserve University, School of Medicine. […] An atmosphere of 5% CO2 and 90% humidity was used for all culture work.
Day 1: After the 3-4 day growth period, the cells were transferred from the T175 flask to a 50 ml conical tube and gently pelleted at 1000 rpm for 5 minutes. […] These flasks were returned to the incubator.
Day 2: Cell Preparation: The next day, the cells were transferred from each T175 flask to an individual 50 ml conical tube and gently pelleted at 1000 rpm for 5 minutes. The cells were gently resuspended in assay media (30 ml) and pelleted again. […] The cells were counted using the ViCell (Beckman Coulter) and diluted as necessary. […] The plates were covered and returned to the incubator prior to compound addition.
The reference compounds, DMSO and SAHA were then added to the compound plate. […] The final high concentration for SAHA and the test compounds in the assays was 40 μM. The final DMSO concentration in all wells was 0.4%. The minimal induction reference compound used was DMSO and the maximal induction reference compound used was SAHA (2 μM final concentration in the assay).
Day 3: The luciferase detection reagent was prepared by transferring the contents of one bottle of Steady-Glo buffer to one bottle of Steady-Glo aubstrate (Steady-Glo Luciferase Assay System, Promega, catalog number E2520), followed by gently mixing until the substrate was thoroughly dissolved and the solution was equilibrated to room temperature. […] The Steady-Glo Reagent was added to the plates (30 μl/well), which were then covered with a black lid and incubated for 10 minutes at room temperature. The plates were then read for luminescence on an Envision (Perkin Elmer) using the ultrasensitive mode (US LUM), […] and 384-well aperture. Luminescence counts in the DMSO reference wells were considered as 0% induction, while those in the 2 μM SAHA reference wells were considered as 100% induction. Dose response curves were plotted as test compound concentration (X-axis) vs. percent activation (Y-axis) using a 4-parameter fit based on the Levenberg-Marquardt algorithm.

[2] = target: T1, Recombinant human HDAC8 (Homo sapiens, UniProt Q9BY41); assay: Human HDAC enzyme inhibitor Fluor-de-Lys assay, HDAC8; format: biochemical
T1 construct: purchased Enzo Life Sciences BML-SE145-0100
T1 sequence (Q9BY41 1-377): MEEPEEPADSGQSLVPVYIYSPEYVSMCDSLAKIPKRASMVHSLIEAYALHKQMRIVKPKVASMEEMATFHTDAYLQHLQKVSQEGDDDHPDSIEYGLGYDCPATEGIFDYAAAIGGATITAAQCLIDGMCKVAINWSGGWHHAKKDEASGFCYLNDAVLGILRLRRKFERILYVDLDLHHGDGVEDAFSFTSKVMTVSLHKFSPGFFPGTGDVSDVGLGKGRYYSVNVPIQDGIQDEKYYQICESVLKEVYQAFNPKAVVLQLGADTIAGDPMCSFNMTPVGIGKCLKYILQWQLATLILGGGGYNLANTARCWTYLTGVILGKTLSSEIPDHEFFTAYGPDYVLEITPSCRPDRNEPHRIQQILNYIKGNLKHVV
Method: (§1) Human HDAC Enzyme Inhibitor Fluor-De-Lys Assay
(§2) Recombinant human HDAC8 (BML-SE145-0100) and HDAC10 (BML-SE559-0050) enzymes, HDAC substrates BML-KI104 and BML-KI178, and HDAC developer solutions BML-KI105 and BML-KI176 were purchased from Enzo Life Sciences. […] HDAC inhibitor suberoylanilide hydroxamic acid (SAHA) was obtained from Indofine and trichostatin A (TSA) was obtained from Sigma-Aldrich.
(§3) The histone deacetylase activities of HDAC1, HDAC2, HDAC3, HDAC6, and HDAC8 were measured in modified FLUOR DE LYS assays in 384-well format. In this assay, HDAC enzymes are initially incubated with an ε-acetyl (or -trifluoroacetyl)-L-lysine-containing substrate with a C-terminal amide having aminomethylcoumarin as the amine component. HDACs cleave the ε-acetyl group, rendering the resulting product susceptible to AMC cleavage by trypsin. The released AMC is then detected by its fluorescence.
(§4) The HDAC3/SMRT assay employed buffer B, consisting of 20 mM HEPES, pH 8.0, 1 mM MgCl2, 50 mM NaCl, 2.7 mM KCl, 0.05% BSA, 0.005% Tween 20, and 10 μM IP4. […] The HDAC8 assay employed buffer D, consisting of 20 mM HEPES, pH 8.0, 1 mM MgCl2, 100 mM NaCl, 20 mM KCl, 0.10% n-octyl-β-D-glucoside (Anatrace) and 0.05% BSA. All steps were performed at room temperature (23° C.). The assay was performed by pre-incubating serial dilutions of test compounds with the target HDAC prior to initiation with substrate. Each compound was titrated in a 10-point dose response, using a 1:3 fold dilution scheme, with 0.15 ul of solution added by ECH0555 to the plate, followed by the addition of 20 μl of the appropriate HDAC isoform diluted in appropriate assay buffer. […] Final conditions used for each assay were: 1. HDAC 1, 0.3 nM total enzyme, 20 μM substrate BML-KI104; 2. […] HDAC 3/SMRT, 0.3 nM total enzyme, 20 μM substrate BML-KI104; 4. […] The reactions were stopped and developed by addition of 30 ul of HDAC developer solution containing a saturating level of HDAC inhibitor as follows: 1.

[3] = target: T2, HDAC6 (Homo sapiens, UniProt Q9UBN7); assay: Human HDAC enzyme inhibitor Fluor-de-Lys assay, HDAC6; format: biochemical
T2 sequence (Q9UBN7 1-1215): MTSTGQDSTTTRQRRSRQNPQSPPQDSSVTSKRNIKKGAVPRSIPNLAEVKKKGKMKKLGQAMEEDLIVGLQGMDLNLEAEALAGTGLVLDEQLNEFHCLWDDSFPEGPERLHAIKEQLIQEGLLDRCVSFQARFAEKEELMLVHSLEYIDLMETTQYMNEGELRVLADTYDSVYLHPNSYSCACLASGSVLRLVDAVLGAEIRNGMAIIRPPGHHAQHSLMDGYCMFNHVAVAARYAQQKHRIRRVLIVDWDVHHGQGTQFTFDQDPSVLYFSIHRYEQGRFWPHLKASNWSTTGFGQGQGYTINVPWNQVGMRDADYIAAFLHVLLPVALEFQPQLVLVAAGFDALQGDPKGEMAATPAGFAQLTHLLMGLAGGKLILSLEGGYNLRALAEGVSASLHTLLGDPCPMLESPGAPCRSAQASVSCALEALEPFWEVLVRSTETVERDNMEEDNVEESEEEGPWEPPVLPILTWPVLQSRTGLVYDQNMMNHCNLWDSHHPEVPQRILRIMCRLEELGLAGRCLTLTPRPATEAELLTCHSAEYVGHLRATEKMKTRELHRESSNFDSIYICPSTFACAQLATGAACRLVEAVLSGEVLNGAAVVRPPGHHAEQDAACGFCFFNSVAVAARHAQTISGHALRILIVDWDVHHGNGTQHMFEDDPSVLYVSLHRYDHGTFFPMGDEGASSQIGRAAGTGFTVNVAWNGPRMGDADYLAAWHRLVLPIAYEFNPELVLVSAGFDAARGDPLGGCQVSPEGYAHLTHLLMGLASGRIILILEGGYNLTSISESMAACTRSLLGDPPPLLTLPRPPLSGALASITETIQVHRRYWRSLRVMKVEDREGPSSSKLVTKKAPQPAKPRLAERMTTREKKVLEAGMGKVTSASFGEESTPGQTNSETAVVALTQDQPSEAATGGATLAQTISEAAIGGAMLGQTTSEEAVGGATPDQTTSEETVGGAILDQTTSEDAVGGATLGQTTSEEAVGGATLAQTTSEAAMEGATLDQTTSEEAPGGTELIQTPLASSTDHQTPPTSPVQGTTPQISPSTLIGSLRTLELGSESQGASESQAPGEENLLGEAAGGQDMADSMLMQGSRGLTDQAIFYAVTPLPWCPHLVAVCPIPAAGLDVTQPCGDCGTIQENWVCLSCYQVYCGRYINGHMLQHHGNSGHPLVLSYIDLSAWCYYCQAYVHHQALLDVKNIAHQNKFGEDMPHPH
Method: as §1, §2, §3, §4

[4] = read-out: Karn EC50 (nM) 0.1% NHS, 0.1% normal human serum
[5] = read-out: Karn EC50 (nM) 5% NHS, 5% normal human serum
[6] = Homo sapiens, Jurkat, read-out: Karn EC50 (nM) 0.1% NHS, 0.1% normal human serum, luciferase induction, 100% = 2 μM SAHA
[7] = Homo sapiens, Jurkat, read-out: Karn EC50 (nM) 5% NHS, 5% normal human serum, luciferase induction, 100% = 2 μM SAHA
[8] = recombinant human HDAC8, Fluor-de-Lys assay
[9] = Homo sapiens, Jurkat, read-out: Karn EC50 (nM) 0.1% NHS, 0.1% normal human serum
[10] = Homo sapiens, Jurkat, read-out: Karn EC50 (nM) 5% NHS, 5% normal human serum

Compound	IC50 [2] [nM]	IC50 [3] [nM]	EC50 [1, 6] [nM]	EC50 [1, 7] [nM]	EC50 [1, 9] [nM]	EC50 [1, 10] [nM]	further results
CCC(=O)CCCCC[C@H](NC(=O)C1CC12CCC(N(C)C)CC2)c1ncc(-c2cc3ccccc3nc2OC)[nH]1 (single isomer, unassigned) [Compound 127]	76	364					EC50 [1, 4]: 37 nM; EC50 [1, 5]: 60 nM
CCC(=O)CCCCC[C@H](NC(=O)C1CC12CCC(N(C)C)CC2)c1ncc(-c2cc3ccccc3nc2OC)[nH]1 (single isomer, unassigned) [Compound 128]	5580	759					EC50 [1, 4]: 442 nM; EC50 [1, 5]: 1140 nM
CCC(=O)CCCCC[C@H](NC(=O)[C@@H]1CC12CCN(C(N)=O)CC2)c1ncc(-c2cc3ccccc3nc2OC)[nH]1 (single isomer, unassigned) [Compound 318]			861	4600			IC50 [2, 8]: 1200 nM; IC50 ([3]; HDAC6, Fluor-de-Lys assay): 551 nM
CCC(=O)CCCCC[C@H](NC(=O)[C@H]1CC12CCN(C(N)=O)CC2)c1ncc(-c2cc3ccccc3nc2OC)[nH]1 (single isomer, unassigned) [Compound 319]			1560	9850			IC50 [2, 8]: 2270 nM; IC50 ([3]; HDAC6, Fluor-de-Lys assay): 1170 nM
CCC(=O)CCCCC[C@H](NC(=O)[C@@H]1CC12CCN(C)CC2)c1ncc(-c2cc3ccccc3nc2OC)[nH]1 (single isomer, unassigned) [Compound 320]			339	1370			IC50 [2, 8]: 14600 nM; IC50 ([3]; HDAC6, Fluor-de-Lys assay): 709 nM
CCC(=O)CCCCC[C@H](NC(=O)[C@H]1CC12CCN(C)CC2)c1ncc(-c2cc3ccccc3nc2OC)[nH]1 (single isomer, unassigned) [Compound 321]			27	83			IC50 [2, 8]: 3380 nM; IC50 ([3]; HDAC6, Fluor-de-Lys assay): 158 nM
CCC(=O)CCCCC[C@H](NC(=O)[C@@H]1CC12CCN(C)CC2)c1ncc(-c2cc3ccccc3nc2O)[nH]1 (single isomer, unassigned) [Compound 324]			1170	1210			
CCC(=O)CCCCC[C@H](NC(=O)[C@H]1CC12CCN(C)CC2)c1ncc(-c2cc3ccccc3nc2O)[nH]1 (single isomer, unassigned) [Compound 325]			154	216			
CCC(=O)CCCCC[C@H](NC(=O)[C@H]1CC12CCOCC2)c1ncc(-c2cc3ccccc3nc2OC)[nH]1 [Compound 63]	3090	619			234	1790	
CCC(=O)CCCCC[C@H](NC(=O)[C@@H]1CC12CCOCC2)c1ncc(-c2cc3ccccc3nc2OC)[nH]1 [Compound 64]	6350	3580			647	5040	
CCC(=O)CCCCC[C@H](NC(=O)[C@H]1CC12CCN(CC)CC2)c1ncc(-c2ccc3c(=O)n(CC)ccc3c2)[nH]1 [Compound 92]	6260	2980			52	56	
CCC(=O)CCCCC[C@H](NC(=O)[C@H]1CC12CCN(C)CC2)c1ncc(-c2cccnc2OC)[nH]1 [Compound 102]	3260	1950			290	301	
CCC(=O)CCCCC[C@H](NC(=O)[C@H]1CC12CCN(CC)CC2)c1ncc(-c2cc3ccccc3nc2OC)o1 [Compound 124]	16000	137			111	151	
CCC(=O)CCCCC[C@H](NC(=O)[C@H]1CC12CCN(C)CC2)c1ncc(-c2cc3ncccc3nc2OC)[nH]1 [Compound 142]	5120	3670			311	544	
CCC(=O)CCCCC[C@H](NC(=O)[C@@H]1CC12CCN(C)CC2)c1ncc(-c2ccc3ncccc3c2)[nH]1 [Compound 281]			2140	2170			
CCC(=O)CCCCC[C@H](NC(=O)[C@H]1CC12CCN(C)CC2)c1ncc(-c2ccc3ncccc3c2)[nH]1 [Compound 282]							EC50 ([1]; read-out: Karn EC50 (nM) 0.1% NHS, 0.1% normal human serum, luciferase induction, 100% = 2 μM SAHA): 294 nM; EC50 ([1]; read-out: Karn EC50 (nM) 5% NHS, 5% normal human serum, luciferase induction, 100% = 2 μM SAHA): 247 nM
CCC(=O)CCCCC[C@H](NC(=O)[C@H]1C[C@]12CCN(C)C2)c1ncc(-c2cc3ccccc3nc2OC)[nH]1 [Compound 327]			73	232			IC50 [2, 8]: 3870 nM
